We go through eight molecules from PubChem BioAssay (NCI).

Common to all, as to test: NCI anticancer screen, dose series, 48 h
Test [1] concerns HOP-62 NSCLC.
Test [2] relates to IGROV1 ovarian.
The test system of test [3] is NCI-H522 lung.
Test [4] has as its system OVCAR-4 ovarian.
Test [5] deals with SK-MEL-28 melanoma.
Test [6] concerns CCRF-CEM leukemia.
Test [7] has as its system M14 melanoma.
In test [8] the test system is MOLT-4 leukemia.
Test [9] has as its system SK-MEL-5 melanoma.

Molecules are shown by their SMILES.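 Five compound concentrations were applied to cells in 96-well plates for 48 hours; endpoints were derived by simple linear interpolation of the resulting dose-response curve. GI50: concentration for 50% inhibition of growth. TGI marks complete inhibition of growth.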

`COc1ccc(-n2nc(C)c3c2N(C)C2(C)C[C@@H]4C3(C)[C@@H]3CC4(C2)N(C)c2c(c(C)nn2-c2ccc(OC)cc2)[C@H]3C)cc1` (stereo partly drawn): the GI50 is 3.1 µM in test [1]; 19.5 µM in test [2]; 0.891 µM in test [3]; 5.95 µM in test [4]; 15.2 µM in test [5]. The TGI was 10.5 µM in test [1]; more than 100 µM in [2]; 6.94 µM in test [3]; more than 100 µM in [4]; more than 100 µM in test [5].
`CCSc1nc(N)c2cnn(C)c2n1`: the GI50 in [6] is 42.3 µM; in test [2], 53.5 µM; in test [7], 52 µM; in test [8], 59.9 µM; in [3], 62.9 µM; in test [4], 81.2 µM. For the same molecule, the GI50 is 62.3 µM in test [5] and 16.1 µM in test [9]. Also, the TGI in [6], in test [2], in test [7], in test [8], in test [3] and in test [4] was more than 100 µM each time. Besides, the TGI in [5] is more than 100 µM; in test [9] it was 38.9 µM.
Regarding `C#Cc1ccc(-n2c(/C=C/c3cc(OC)c(OC)c(OC)c3)nc3ncccc3c2=O)cc1`, the GI50 was 4.9 µM in test [6]; 13.3 µM in test [1]; 6.08 µM in [2]; 4.94 µM in test [7]; 2.33 µM in test [3]; 12 µM in [4]. Moreover, the GI50 in test [5] is 34.6 µM; in test [9], 1.78 µM. For the same molecule, the TGI is more than 100 µM in test [6]; more than 100 µM in [1]; more than 100 µM in test [2]; more than 100 µM in test [7]; 6.29 µM in test [3]; 90.3 µM in test [4]. Also, the TGI in [5] was more than 100 µM; in [9], 4.4 µM.
Turning to `COC(=O)C1=C(O)C(C(=O)OC)[C@@]2(O)[C@@H](C(=O)OC)C(c3ccc(OC(=O)C(CC(C)C)NC(C)=O)cc3)C[C@@H]1[C@@H]2C(=O)OC` (stereo partly drawn), the GI50 was 41.4 µM in [6]; 31.2 µM in test [1]; more than 100 µM in [2]; 27.5 µM in [7]; 48.3 µM in test [8]; 60.9 µM in test [3]. For the same molecule, the figures for the GI50 in test [5] and in [9] were more than 100 µM and 18.5 µM, respectively. Also, the TGI in test [6] is more than 100 µM; in [1], more than 100 µM; in [2], more than 100 µM; in [7] it was 88.1 µM; in test [8], 97.2 µM; in [3], more than 100 µM. The TGI in [5] and in test [9] was more than 100 µM throughout.
For `COc1ncnc2c(-c3ccco3)cn(COCc3ccccc3)c12`, the GI50 in test [6] is more than 50 µM; in [1] it was more than 50 µM; in test [2] it was more than 50 µM; in test [7], 22.5 µM; in test [3] it was 9.97 µM; in test [4], more than 50 µM. Moreover, the GI50 in test [5] is more than 50 µM; in test [9], 1.28 µM. Also, the TGI in test [6], in [1], in test [2], in test [7], in test [3] and in [4] was more than 50 µM in each case. In addition, the TGI in test [5] and in test [9] was more than 50 µM in each case.
For the molecule `C/C(=N\NC(=S)N1CCC(C2CCN(C(=S)N/N=C(\C)c3ccccn3)CC2)CC1)c1ccccn1`, the TGI in test [6], in [1], in test [2], in test [7], in [3] and in test [4] was more than 100 µM in each case. In addition, the TGI in test [5] and in [9] was more than 100 µM throughout.
Turning to `O=C1CC2Sc3ccccc3N=C2N1c1ccc(Cl)cc1Cl` (stereo not drawn), the TGI in test [6] was 52.9 µM; in test [1] it was more than 100 µM; in [2] it was more than 100 µM; in test [7], more than 100 µM; in test [8], more than 100 µM; in test [4], more than 100 µM. Also, the TGI in [5] and in test [9] was more than 100 µM in each case.
With `C/C(=N/Nc1ccc([N+](=O)[O-])cc1[N+](=O)[O-])C(CC(C(=O)Nc1ccccc1C)/C(C)=N\Nc1ccc([N+](=O)[O-])cc1[N+](=O)[O-])C(=O)Nc1ccccc1C` (stereo not drawn), the TGI in [6] is more than 100 µM; in [1], 30.6 µM; in test [2], 32.1 µM; in test [7], 46 µM; in test [3], 41.8 µM; in [4], 15.9 µM. For the same molecule, the TGI was 51.1 µM in test [5] and 36.8 µM in test [9].
